Results from ChEMBL document CHEMBL4706763, “Targeting IRAK1 for Degradation with PROTACs” (ACS Med Chem Lett, 2021).

Assays:
[1] = target: T1, von Hippel-Lindau disease tumor suppressor/Interleukin-1 receptor-associated kinase 1 (Homo sapiens, UniProt P51617+P40337); test: Protac activity at VHL/IRAK1 in HEK293T cells assessed as induction of IRAK1 degradation at 10 uM measured after 24 hrs by Western blot analysis relative to control; format: cell-based
Target sequence in this assay (P40337 whole entry, looked up): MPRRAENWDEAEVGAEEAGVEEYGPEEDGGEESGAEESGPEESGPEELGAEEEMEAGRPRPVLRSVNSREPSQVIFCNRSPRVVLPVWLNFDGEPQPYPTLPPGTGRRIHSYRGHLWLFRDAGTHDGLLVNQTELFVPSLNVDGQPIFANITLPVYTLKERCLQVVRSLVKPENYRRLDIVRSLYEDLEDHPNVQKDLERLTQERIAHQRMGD
Target sequence in this assay (P51617 whole entry, looked up): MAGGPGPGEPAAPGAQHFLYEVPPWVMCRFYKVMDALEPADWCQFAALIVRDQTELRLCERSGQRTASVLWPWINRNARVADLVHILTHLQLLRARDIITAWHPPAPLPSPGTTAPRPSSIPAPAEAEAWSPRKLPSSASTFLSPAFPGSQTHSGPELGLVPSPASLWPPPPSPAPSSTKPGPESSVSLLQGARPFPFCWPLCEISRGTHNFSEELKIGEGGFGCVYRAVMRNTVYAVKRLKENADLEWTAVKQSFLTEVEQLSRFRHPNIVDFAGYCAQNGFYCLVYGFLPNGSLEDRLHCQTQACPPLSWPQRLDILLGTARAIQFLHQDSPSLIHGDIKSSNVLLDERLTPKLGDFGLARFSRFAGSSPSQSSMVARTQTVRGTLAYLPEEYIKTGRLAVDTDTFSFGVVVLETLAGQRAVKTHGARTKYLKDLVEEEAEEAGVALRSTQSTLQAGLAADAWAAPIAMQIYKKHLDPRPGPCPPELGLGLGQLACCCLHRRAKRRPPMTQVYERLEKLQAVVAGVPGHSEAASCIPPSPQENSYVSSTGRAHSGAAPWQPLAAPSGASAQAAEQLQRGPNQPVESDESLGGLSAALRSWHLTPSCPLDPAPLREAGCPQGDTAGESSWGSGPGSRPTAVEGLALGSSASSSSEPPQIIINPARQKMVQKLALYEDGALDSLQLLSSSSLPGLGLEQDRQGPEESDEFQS

[2] = target: T1, von Hippel-Lindau disease tumor suppressor/Interleukin-1 receptor-associated kinase 1; test: Protac activity at VHL/IRAK1 in HEK293T cells assessed as induction of IRAK1 degradation measured after 24 hrs by Western blot analysis; format: cell-based
Target sequence in this assay (P51617 whole entry): as the sequence (P51617 whole entry, looked up) above
Target sequence in this assay (P40337 whole entry): as the sequence (P40337 whole entry, looked up) above

Compound	Emax [1]	DC50 [2]
COc1cc(N2CC[C@@H](OCC(=O)N[C@H](C(=O)N3C[C@H](O)C[C@H]3C(=O)N[C@@H](C)c3ccc(-c4scnc4C)cc3)C(C)(C)C)C[C@@H]2C)ccc1NC(=O)c1cccc(-c2ccn[nH]2)n1	94%	13 nM
COc1cc(N2CCN(C(=O)OCC(=O)N[C@H](C(=O)N3C[C@H](O)C[C@H]3C(=O)N[C@@H](C)c3ccc(-c4scnc4C)cc3)C(C)(C)C)CC2)ccc1NC(=O)c1cccc(-c2ccn[nH]2)n1	90%	9 nM
COc1cc(N2CCC(OCC(=O)N[C@H](C(=O)N3C[C@H](O)C[C@H]3C(=O)NCc3ccc(-c4scnc4C)cc3)C(C)(C)C)CC2)ccc1NC(=O)c1cccc(-c2ccn[nH]2)n1	95%	16 nM
COc1cc(N2CCN(C(=O)OCC(=O)N[C@H](C(=O)N3C[C@H](O)C[C@H]3C(=O)NCc3ccc(-c4scnc4C)cc3)C(C)(C)C)CC2)ccc1NC(=O)c1cccc(-c2ccn[nH]2)n1	97%	16 nM

Next, values leading:

Emax [1]	DC50 [2]	Compound
95%		COc1cc(N2CC[C@H](OCC(=O)N[C@H](C(=O)N3C[C@H](O)C[C@H]3C(=O)N[C@@H](C)c3ccc(-c4scnc4C)cc3)C(C)(C)C)[C@@H](C)C2)ccc1NC(=O)c1cccc(-c2ccn[nH]2)n1
96%	21 nM	COc1cc(N2CC[C@@H](OCC(=O)N[C@H](C(=O)N3C[C@H](O)C[C@H]3C(=O)N[C@@H](C)c3ccc(-c4scnc4C)cc3)C(C)(C)C)[C@H](C)C2)ccc1NC(=O)c1cccc(-c2ccn[nH]2)n1
96%	3 nM	COc1cc(N2CCC(OCC(=O)N[C@H](C(=O)N3C[C@H](O)C[C@H]3C(=O)N[C@@H](C)c3ccc(-c4scnc4C)cc3)C(C)(C)C)CC2)ccc1NC(=O)c1cccc(-c2ccn[nH]2)n1
96%	13 nM	COc1cc(N2CCC(OCC(=O)N[C@H](C(=O)N3C[C@H](O)C[C@H]3C(=O)NCc3ccc(-c4scnc4C)cc3F)C(C)(C)C)CC2)ccc1NC(=O)c1cccc(-c2ccn[nH]2)n1
